Experimental data from patent publication US8198263B2, “Vitamin D derivatives active on the vitamin D nuclear receptor, preparation and uses thereof” (Centre National de la Recherche Scientifique, priority 2005, dated 2012).
Read-outs that look alike come from different tables or passages of the source.

Columns and labels:
[1] = parameters: species or system C57BL/6J mice; conditions: mouse, in vivo, po
Protocol: FIG. 3: Effects of 1α,25(OH)2D3 and new ligands (compounds A and B) on calcium levels in serum. (FIG. 3.1) Mice were fed either with vehicle (sesame oil), 1α,25(OH)2D3 2 μg/kg, 2 μg/kg compound A or 2 μg/kg compound B during 7 days. (FIG. 3.2) Mice were fed either with vehicle (Veh), 1α,25(OH)2D3 (D3), or compound A during 4 days. Data are presented as mean±SEM. Significant differences are marked as *p<0.05, ***p<0.01.
Male C57BL/6J mice, 6-7 weeks of age, were obtained from Charles River Laboratories France (l'Arbresle, France). All mice were maintained in a temperature-controlled (23° C.) facility with a 12 h light/dark cycle and were given free access to food and water. The mice were fed the EQ12310 diet from UAR (Villemoison sur Orge, France), which contained 16.8% protein, 73.5% carbohydrate and 4.8% fat. The different VDR agonists were dissolved in sesame oil and administered by oral gavage at the indicated doses. The mice were fasted 4 h before harvesting blood for subsequent Calcium measurements, which were performed as described (1).
Thereafter a detailed dose response (0.2, 0.5, 1, and 2 μg/kg) was performed with both 1α,25(OH)2D3, and compound A (FIG. 3.2). In this study compounds were gavaged during 4 consecutive days.

human VDR = molecular target: T1, human VDR (Homo sapiens, UniProt P11473); experiment: Transfection and transactivation assay (GAL4 DBD-VDR LBD, UAS-TATA-luciferase reporter, 293 EBNA cells); format: cell-based; conditions: for VDR agonist character: summary statement
T1 construct: an expression plasmid of GAL4 DBD-VDR LBD; expressed in transfected cells; host or cells: 293 EBNA cells
T1 sequence (P11473 127-423 limits assumed): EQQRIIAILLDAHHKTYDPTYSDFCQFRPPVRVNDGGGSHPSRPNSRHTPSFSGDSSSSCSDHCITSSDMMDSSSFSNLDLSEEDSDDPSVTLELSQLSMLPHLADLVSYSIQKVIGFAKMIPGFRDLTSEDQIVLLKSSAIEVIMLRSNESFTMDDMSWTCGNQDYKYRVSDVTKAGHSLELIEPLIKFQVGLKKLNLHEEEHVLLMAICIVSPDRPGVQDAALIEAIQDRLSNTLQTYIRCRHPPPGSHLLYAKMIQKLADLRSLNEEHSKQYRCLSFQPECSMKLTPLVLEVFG
From the text: FIG. 2: Transcriptional activation of VDR by 1α,25(OH)2D3, compound A and compound B. 293 EBNA cells were transiently transfected with a UAS-TATA-luciferase reporter plasmid and an expression plasmid of GAL4 DBD-VDR LBD and subsequently treated with 1α,25(OH)2D3, compound A (A), and compound B (B) at 10^−10 and 10^−9M. Luciferase activity for each sample was normalized to the β-galactosidase activity. Data is shown as fold induction of agonist induced luciferase activity divided by luciferase activity of vehicle.
The human VDR LBD was subcloned into the pG4M derived plasmid as a Gal fusion protein. Transient transfection experiments for the analysis of VDR activation were performed in 48 wells plates, using a standard calcium phosphate coprecipitation technique as described (11). 293 EBNA cells were seeded (6.0×10^4 cells per well) and incubated for 24 hours at 37° C. in medium containing Dulbecco medium (DMEM+1 g/L glucose), 10% FCS, gentamycine and 1 mg/ml G418 (geneticin). 293 EBNA cells were transiently transfected with 12.5 ng of Gal-4-VDR LBD plasmid, 10 ng of UAS-TATA-luciferase reporter plasmid, and 37.5 ng of PCH110 internal control recombinant expressing β-galactoside plasmid. After cells were incubated for 8 hours at 37° C., the medium was replaced and the compounds were added in optimized serial dilutions. After 20 hours at 37° C., cells were washed with PBS and harvested in Passiv lysis buffer (Promega). The cell lysates were assayed for lusiferase and β-galactosidase activity. Luciferase activity for each sample was normalized to β-galactosidase activity. Cells were treated with 1α, 25(OH)2D3, compound A, and compound B. All experiments were performed in duplicates.

| dose at which the effect on serum calcium levels became significant / caused hypercalcemia [1] [µg/kg] | transcriptional activities of human VDR induced, times more efficiently than 1α,25(OH)2D3 (human VDR; at 10^−10 M, 293 EBNA cells, luciferase normalized to β-galactosidase) [times] | VDR agonist character (human VDR) | dose at which the effect on serum calcium levels became significant / caused hypercalcemia ([1]; male, C57BL/6J, 4 days) [µg/kg] | effect on serum calcium levels compared with 1α,25(OH)2D3 [1] | SMILES |
| --- | --- | --- | --- | --- | --- |
| 1 |  |  |  |  | C=C1/C(=C\C=C2/CCC[C@]3(C)[C@@H]([C@H](C)CCCC(C)(C)O)CC[C@@H]23)C[C@@H](O)C[C@@H]1O [1α,25(OH)2D3, reference compound] |
|  | 12 | superagonist activity | 2 | weaker effect on serum calcium levels | C=C1/C(=C\C=C2/CCC[C@@]3(C)[C@H]2CC[C@@H]3[C@]2(C)C[C@H](CC(C)(C)O)CO2)C[C@@H](O)C[C@@H]1O [compound A, (1R,3S,5Z)-5-((E)-2-((1S,3aS,7aS)-hexahydro-1-((2S,4S)-tetrahydro-4-(2-hydroxy-2-methylpropyl)-2-methylfuran-2-yl)-7a-methyl-1H-inden-4(7aH)-ylidene)ethylidene)-4-methylenecyclohexane-1,3-diol] |
|  |  | behaves like 1α,25(OH)2D3 |  |  | C=C1/C(=C\C=C2/CCC[C@@]3(C)[C@H]2CC[C@@H]3[C@]2(C)C[C@@H](CC(C)(C)O)CO2)C[C@@H](O)C[C@@H]1O [compound B, (1R,3S,5Z)-5-((E)-2-((1S,3aS,7aS)-hexahydro-1-((2S,4R)-tetrahydro-4-(2-hydroxy-2-methylpropyl)-2-methylfuran-2-yl)-7a-methyl-1H-inden-4(7aH)-ylidene)ethylidene)-4-methylenecyclohexane-1,3-diol] |
